“Also recorded” adds a separate entry of the source. Like-named read-outs stand apart in the source and are kept apart here.
Legend:
[1] = Excitation and emission values of the fluorescent dyes in solvent; format: physicochemical; details: for Emission / Excitation: measured in methanol
Description: Some exemplary fluorescent dyes according to the invention together with values for excitation and emission are included in table 1. […] The excitation and emission values of the fluorescent dyes were measured in methanol, which simulates a protein-environment, thus yielding a shift of the emission to shorter wavelengths. For comparison, excitation and emission values for compound 10 were also measured in HEPES buffer (i.e. under initial, aqueous assay conditions). In this aqueous environment, the excitation is 620 nm and the emission is 688 nm compared to an emission at 662 nm in methanol.
(§1) The fluorescent dye will bind to any lipid-binding site of the protein, and the resulting increase in the hydrophobicity surrounding of the dye will result in an increase in the intensity of the fluorescence and a shift in the emission to a shorter wavelength. The emission-wavelength of a compound according to formula I in a hydrophobic surrounding can be determined in a non-aqueous solution such as methanol.

[2] = biological target: BSA (Bos taurus, UniProt P02769)
Sequence of BSA (P02769 25-607): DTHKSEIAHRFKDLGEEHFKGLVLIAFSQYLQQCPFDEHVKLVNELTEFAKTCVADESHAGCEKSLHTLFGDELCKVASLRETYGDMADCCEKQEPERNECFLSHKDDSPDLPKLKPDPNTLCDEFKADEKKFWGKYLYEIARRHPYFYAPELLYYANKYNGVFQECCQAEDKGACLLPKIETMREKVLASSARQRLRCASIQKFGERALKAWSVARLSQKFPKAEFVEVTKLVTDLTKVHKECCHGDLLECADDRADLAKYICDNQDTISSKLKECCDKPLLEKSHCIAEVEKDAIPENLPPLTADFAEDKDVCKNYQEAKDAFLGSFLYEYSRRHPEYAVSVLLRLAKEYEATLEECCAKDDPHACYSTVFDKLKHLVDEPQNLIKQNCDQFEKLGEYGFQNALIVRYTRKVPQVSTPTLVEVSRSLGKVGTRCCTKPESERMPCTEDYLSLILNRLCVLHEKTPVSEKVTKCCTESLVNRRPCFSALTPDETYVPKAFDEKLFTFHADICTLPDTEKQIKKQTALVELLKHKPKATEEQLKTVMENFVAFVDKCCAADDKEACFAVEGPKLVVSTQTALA
Description: Depending on the strength of the binding of the ligand to the lipid binding site of the protein, the ligand releases the fluorescent dye from the hydrophobic lipid binding site. This can be measured by a decrease of the intensity of fluorescence at the emission wavelength of the dye in hydrophobic surrounding, as imitated by dissolving the dye in methanol.
Increasing concentrations of lipid or drug were added to replace the dye in a dose-dependent fashion. Fluorescence values at 620 nm were corrected for basal fluorescence at 620 nm prior to protein addition as well as for dilution effects from adding increasing ligand concentrations. The starting fluorescence value minus the value at a given ligand concentration was plotted as % replacement.

[3] = Water solubility; format: physicochemical
[4] = biological target: T1, peroxisomal matrix protein (SCP2) (Homo sapiens, UniProt P22307); assay: Titration of fluorescent dye with peroxisomal matrix protein (SCP2); format: binding; details: dye 250 nM, FIG. 2b
T1 sequence (P22307 1-143 isoform P22307-2): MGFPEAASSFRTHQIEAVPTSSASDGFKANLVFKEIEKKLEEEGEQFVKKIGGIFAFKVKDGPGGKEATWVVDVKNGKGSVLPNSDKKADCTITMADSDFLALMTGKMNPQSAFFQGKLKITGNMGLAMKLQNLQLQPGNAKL
Text: (§2) In a preferred embodiment of the invention, the assay for identifying lipid binding sites of proteins using the compounds according to formula I as defined above, comprises the steps of • a) dissolving a compound according to formula I as defined above in an aqueous solvent, • b) adding the protein to be tested for containing a lipid binding site, preferably in various concentrations, • c) measuring the intensity of fluorescence emission at the wavelength of maximal emission of the fluorescent dye.
as §1
(§3) For determining the submaximal concentration of dye binding to the protein, the latter was titrated until no further fluorescence increase at 620 nm could be detected.

[5] = biological target: bovine serum albumin (BSA) (Bos taurus, UniProt P02769); assay: Titration of fluorescent dye with bovine serum albumin (BSA); format: binding; details: for wavelength of maximal emission intensity: FIG. 1a/1b
Sequence of bovine serum albumin (BSA) (P02769 25-607): as the sequence (P02769 25-607) above
Text: as §2, §1, §3

[6] = biological target: cytochrome c (Homo sapiens, UniProt P99999); details: whole cells; cited from earlier work
Sequence of cytochrome c (P99999 whole entry, species assumed): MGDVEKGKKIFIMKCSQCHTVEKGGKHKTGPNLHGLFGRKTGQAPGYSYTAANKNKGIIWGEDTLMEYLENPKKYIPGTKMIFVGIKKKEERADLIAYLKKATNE

Compound | Emission [1] [nm] | Excitation [1] [nm] | also measured
CCN(CC)c1cc(C)c2nc3c4ccc(O)cc4c(=O)cc-3sc2c1 [compound 6, 9-Diethylamino-3-hydroxy-11-methyl-benzo[a]phenothiazin-5-one] | 665 | 580 | 
CCN(CC)c1ccc2nc3c4cc(O)ccc4c(=O)cc-3oc2c1 [compound 1] | 629 | 540 | 
CCN(CC)c1ccc2nc3c4ccc(O)cc4c(=O)c(Br)c-3oc2c1 [compound 4, 6-Bromo-9-diethylamino-3-hydroxy-benzo[a]phenoxazin-5-one] | 650 | 552 | 
CCN(CC)c1ccc2nc3c4cc(O)ccc4c(=O)c(Br)c-3oc2c1 [compound 2] | 640 | 550 | 
N[C@@H](Cc1c[nH]c2ccccc12)C(=O)O [tryptophan] |  |  | release of dye from BSA ([2]; 2BrNR 250 nM, 5.54 μM BSA, 282.62 μM ligand, FIG. 5a): not able to release all the dye from BSA; release of dye from BSA ([2]; NRBA, 2 μM BSA, 1 mM ligand, FIG. 5b): not able to release all the dye from BSA; lipid binding sites of albumin occupied / dye molecules replaced ([2]; replacement of NRBA from 2 μM BSA, FIG. 4/5b): only replaced one molecule of the dye; also recorded: occupation of one binding site
CCCCOc1ccc2c3nc4ccc(N(CC)CC)cc4oc-3c(Br)c(=O)c2c1 [compound 8] | 650 | 556 | Quantum Yield [1]: 0.35
CCCCOc1ccc2c3nc4c(C)cc(N(CC)CC)cc4sc-3cc(=O)c2c1 [compound 7] | 664 | 585 | Quantum Yield [1]: 0.29
CCN(CC)c1ccc2nc3c4cc(OCCCC(=O)O)ccc4c(=O)cc-3oc2c1 [compound 11, nile red butyric acid] | 631 | 544 | water solubility [3]: increased water solubility; binding of SCP2 to dye compared with BSA and MAO B [4]: weakest; change of fluorescence on titration with BSA ([5]; FIG. 1a (dye 0.25 μM) / FIG. 1b (dye 3 μM)): shift in the emission to a shorter wavelength and an increase in the intensity of the fluorescence; binding of BSA to dye compared with SCP2 and MAO B ([5]; dye 250 nM, FIG. 2b): strongest binding; wavelength of maximal emission intensity ([5]; in the absence of BSA): 657 nm; wavelength of maximal emission intensity ([5]; in the presence of BSA): 620 nm
CCN(CC)c1ccc2nc3c4ccc(O)c(Br)c4c(=O)c(Br)c-3oc2c1 [compound 5, 4,6-Dibromo-9-diethylamino-3-hydroxy-benzo[a]phenoxazin-5-one] | 653 | 562 | 
CCN(CC)c1ccc2nc3c4cc(O)ccc4c(=O)c(Cl)c-3oc2c1 [compound 3] | 643 | 549 | 
CCN(CC)c1ccc2nc3c4ccccc4c(=O)cc-3oc2c1 [nile red] |  |  | quenching of fluorescence by cytochrome c [6]: strong quenching effect

Reference: patent US20080038840A1, “Fluorescent Method And Compounds To Monitor Protein-Lipid Binding” (EUROPAEISCHES LABORATORIUM FUER MOLEKULARBIOLOGIE, priority 2004, published 2008)
